“Also recorded” adds a separate entry of the source.

Data set [1] deals with tissue noradrenaline and dopamine content. Description: Tissue catecholamines in SHR after three oral doses 12 h apart. It counts as in vivo, spontaneously hypertensive rats (SHR). As for the experimental part: The activity of nepicastat at twelve selected enzymes and receptors was determined using established assays. Details of individual receptor radioligand binding assays can be found in Wong et al (1993). Binding data were analyzed by iterative curve-fitting to a four parameter logistic equation. Ki values were calculated from IC50 values using the Cheng-Prusoff equation. Enzyme inhibitory activity was expressed as IC50 (concentration required to produce 50% inhibition of enzyme activity). Male SHRs (15-16 weeks old, Charles River, Wilmington, Mass., USA) were used in the study. On the day of the study, animals were weighed and randomly assigned to be dosed with either vehicle (control) or the appropriate dose of nepicastat (3, 10, 30 or 100 mg.kg^−1, po) or (R)-5-Aminomethyl-1-(5,7-difluoro-1,2,3,4-tetrahydronaphth-2-yl)-2,3-dihydro-2-thioxo-1H-imidazole hydrochloride (30 mg.kg^−1, po) three consecutive times, twelve hours apart. At six hours after the third dose, the rats were anaesthetized with halothane, decapitated and tissues (cerebral cortex, mesenteric artery and left ventricle) were rapidly harvested, weighed, placed in iced perchloric acid (0.4 M), frozen in liquid nitrogen and stored at −70° C. until subsequent analysis. To quantify noradrenaline and dopamine concentrations, tissues were homogenized by brief sonication and centrifuged at 13,000 rpm for 30 minutes at 4° C. The supernatant, spiked with 3,4-dihydroxybenzylamine (internal standard), was assayed for noradrenaline and dopamine by HPLC using electrochemical detection.
In vivo biochemical studies in spontaneously hypertensive rats (SHR) and normal dogs. Mate SHR (15-16 week old, Charles River, Wilmington, Mass.) were used in the study. On the day of the study, the animals were weighed and randomly assigned to receive either placebo (vehicle) or the appropriate dose of 2a, 2b or 1. Each rat was dosed orally three times, 12 h apart, beginning in the morning. At 6 h after the third dose, the rats were anesthetized with halothane, decapitated, and the tissues (cerebral cortex, mesenteric artery and left ventricle) were rapidly harvested, weighed, placed in iced 0.4 M perchloric acid, frozen in liquid nitrogen and stored at −70° C. until analysis. Tissue NE and DA concentrations were assayed by HPLC using electrochemical detection.
Fifteen to sixteen week old male spontaneously hypertensive rats (SHR) (Charles River Labs) were allowed food and water ad libitum. Animals were weighed and randomly assigned to one of the following treatment groups: 1) distilled water vehicle (dH2O), or nepicastat at 3, 10, 30, and 100 mg/kg, 2) (R)-5-Aminomethyl-1-(5,7-difluoro-1,2,3,4-tetrahydronaphth-2-yl)-2,3-dihydro-2-thioxo-1H-imidazole hydrochloride at 30 mg/kg in distilled water, or 3) PEG 400:dH2O vehicle or RS-2643 1-000 at 30 mg/kg. Each rat was dosed orally (p.o., using a gavage needle) three times 12 hours apart, beginning in the morning. At six hours after the third dose rats were anesthetized with halothane, decapitated, and the cortex, mesenteric artery, and left ventricle were rapidly harvested, weighed, placed in iced 0.4 M perchioric acid, frozen in liquid nitrogen, and stored at −70° C. Tissue dopamine and norepinephrine concentrations were assayed by high performance liquid chromatography and electrochemical detection.
Four series of statistical analyses were performed. The first series compared the rats treated with various doses of nepicastat, and (R)-5-Aminomethyl-1-(5,7-difluoro-1,2,3,4-tetrahydronaphth-2-yl)-2,3-dihydro-2-thioxo-1H-imidazole hydrochloride at 30 mg/kg to the vehicle control animals. A nonparametric one-way analysis of variance (ANOVA) with factor Dose and blocking factor Day was performed for each tissue and strain separately. Overall results are reported. Pairwise analysis between treated and controls at each dose were carried out using Dunnett's test to control the experiment-wise error rate. […]

In another data set the test system is pre-pulse inhibition. Description: Pre-pulse inhibition of acoustic startle on day ten of chronic dosing. As to the method: (§1) The effects of chronic dosing of nepicastat were examined. Between three and thirteen days prior to the first dosing day the rats were placed inside the startle apparatus and after a five minute acclimation period they were presented with a 118 dB noise burst on average once a minute (a variable inter-trial interval ranging between 30 and 90 seconds will be used) for 20 minutes. The startle responses were measured and a mean for the last twenty startle response was calculated for each rat.
Acoustic startle reactivity (a series of muscle contractions elicited by an intense burst of noise with a rapid onset), and pre-pulse inhibition (sensorimotor gating measured by analyzing any decrease in startle reactivity which occurs when a startling stimulus is immediately preceded by a non startling stimulus) were both measured in eight SR-Lab (San Diego Instruments, San Diego, Calif.) test stations. The rats were placed individually in a Plexiglas cylinder (10 cm diameter) which was housed in a ventilated sound-attenuating enclosure. Acoustic noise bursts (a broad band noise with a rise time and fall time of 1 msec) were presented via a speaker mounted 30 cm above the animal. Also, these speakers produced a 68 dB level of background noise throughout all test sessions. […] A decibel meter was used to calibrate the speakers in each of the eight test station to ±1% of the mean. Additionally, a SR-Lab calibrating instrument was used to calibrate each of the eight startle detection apparatuses to ±2% of the mean. Startle reactivity and pre-pulse inhibition tests were run concurrently immediately alter the motor activity test (about 4 hours and 40 minutes after the morning daily injection of nepicastat, and SKF-102698, and 10 minutes after a supplemental administration of clonidine and d-amphetamine on dosing day ten).

Data set [2] has as its system spontaneous motor activity. Description: Spontaneous motor activity on day ten of chronic dosing. As for the experimental part: as §1
The animals were tested in an enclosed room with a white noise generator running. Motor activity tests were conducted immediately after the body core temperature reading taken on dosing day ten (about 3 hours and 35 minutes after the morning daily dose of nepicastat, and SKF-102698, and 20 minutes prior to the daily administration of clonidine and d-amphetamine on dosing day ten). Motor activity tests were run for one hour. A diagnostic program was run on each of the motor activity chambers prior to each test session to assure that the photo beams and light sensors were operating properly. […] D-amphetamine was used as the positive control for this assay.
Each rats spontaneous locomotion was obtained by calculating the total number of photobeams that the subject broke during the testing session.
Spontaneous motor activity was measured for each animal every 15 min for 1 hour. Each time block (every 15 min) was analyzed separately. Kruskal-Wallis test (nonparametric technique) was performed to test for the difference between treatment groups. If the overall significant difference […], Bonferroni's adjustment for multiple comparisons is then made.

In data set [3] the test system is cardiovascular parameters. Description: Cardiovascular effects of acute intravenous dosing in normal anesthetized dogs. The class given is in vivo. The note with it: 1-10 mg/kg i.v., up to five hours.
The mark [4] stands for this setting: 100 mg/kg po x3, 6 h after third dose.
Where [5] appears, read: conclusion over rat dose-response studies.
Where [6] appears, read: doses of 3, 10, 30 and 100 mg/kg.

In the case of `Cl.NCc1c[nH]c(=S)n1[C@@H]1CCc2c(F)cc(F)cc2C1` [R-enantiomer, (R)-5-Aminomethyl-1-(5,7-difluoro-1,2,3,4-tetrahydronaphth-2-yl)-2,3-dihydro-2-thioxo-1H-imidazole hydrochloride], in data set [1] (30 mg/kg po x3), the “dopamine vs vehicle, cerebral cortex” value is recorded as “significant increase”; the “dopamine vs vehicle, left ventricle” value is given as “significant increase”; the “dopamine vs vehicle, mesenteric artery” value is “significant increase”; the “dopamine/norepinephrine ratio vs vehicle, cerebral cortex” value was “no effect”. Further, in data set [1] (30 mg/kg po x3), the “dopamine/norepinephrine ratio vs vehicle, left ventricle” value is on record as “significant increase”; the “dopamine/norepinephrine ratio vs vehicle, mesenteric artery” value is “significant increase”; the “increase in DA/NE ratio, cerebral cortex” value came out at 1.1 fold; the “increase in DA/NE ratio, left ventricle” value was 3.5 fold. Further, in data set [1] (30 mg/kg po x3), the “increase in DA/NE ratio, mesenteric artery” value is on record as 2.6 fold; the “norepinephrine vs vehicle, cerebral cortex” value is “significant increase”; the “norepinephrine vs vehicle, left ventricle” value is “did not significantly lower”; the “norepinephrine vs vehicle, mesenteric artery” value was “did not significantly lower”.

Consider `Fc1cc(F)cc(Cn2cc[nH]c2=S)c1` [SKF 102698, reference compound], for which, in the data set with pre-pulse inhibition (day ten of b.i.d. oral dosing), the “percent prepulse inhibition vs vehicle” value is “marginally higher percent prepulse inhibition; also recorded: Neither d-amphetamine nor SKF 102698 was significantly different”. The “spontaneous motor (locomotor) activity vs vehicle” value (“spontaneous motor … vs vehicle” below) in data set [2] (day ten of b.i.d. oral dosing, 1 hour) was “significantly lower locomotor activity than its vehicle control at the first 45 minutes”. Besides, the “spontaneous motor … vs vehicle” value in data set [2] (day ten of b.i.d. oral dosing, 1 hour, listed as SKF102698) is “significantly reduced”. For the same molecule, in data set [1] (30 mg/kg po x3), the “dopamine vs vehicle, cerebral cortex” value is on record as “significantly greater (p<0.01) than vehicle”; the “dopamine vs vehicle, left ventricle” value is reported as “significantly greater (p<0.01) than vehicle”; the “dopamine vs vehicle, mesenteric artery” value was “significantly greater than vehicle”; the “dopamine/norepinephrine ratio vs vehicle, cerebral cortex” value is recorded as “significantly (p<0.01) greater than vehicle”. In data set [1] (30 mg/kg po x3), the “dopamine/norepinephrine ratio vs vehicle, left ventricle” value is “significantly (p<0.05) greater than vehicle”; the “dopamine/norepinephrine ratio vs vehicle, mesenteric artery” value was “significantly greater than vehicle”; the “increase in DA/NE ratio, cerebral cortex” value was determined as 2.7 fold; the “increase in DA/NE ratio, left ventricle” value came to 3.5 fold. In addition, in data set [1] (30 mg/kg po x3), the “increase in DA/NE ratio, mesenteric artery” value is 5.5 fold; the “norepinephrine vs vehicle, cerebral cortex” value is reported as “significantly lower than vehicle”; the “norepinephrine vs vehicle, left ventricle” value is “not different from vehicle”; the “norepinephrine vs vehicle, mesenteric artery” value is listed as “significantly lower than vehicle”.

Regarding `Cl.NCc1c[nH]c(=S)n1[C@H]1CCc2c(F)cc(F)cc2C1` [nepicastat, (S)-5-Aminomethyl-1-(5,7-difluoro-1,2,3,4-tetrahydronaphth-2-yl)-2,3-dihydro-2-thioxo-1H-imidazole hydrochloride], in the data set on pre-pulse inhibition (rat, in vivo, po), the “percent prepulse inhibition vs vehicle” value is “None of the nepicastat dose groups were significantly different”. Also, the cardiovascular effects entry in data set [3] was “no cardiovascular effects”. Moreover, in data set [2] (rat, in vivo, po), the “spontaneous motor … vs vehicle” value is recorded as “no overall significant treatment effect”. Moreover, in data set [1] (30 mg/kg po x3), the “increase in DA/NE ratio, cerebral cortex” value came to 1.5 fold; the “increase in DA/NE ratio, left ventricle” value is on record as 7.5 fold; the “increase in DA/NE ratio, mesenteric artery” value is listed as 8.3 fold. In data set [1] (100 mg/kg po x3), the “maximal increase in DA/NE ratio, artery (mesenteric)” value is 14 fold; the “maximal increase in DA/NE ratio, cerebral cortex” value is 3.2 fold; the “maximal increase in DA/NE ratio, left ventricle” value is on record as 11 fold. In addition, in data set [1] (setting [4]), the “decrease in noradrenaline, cerebral cortex” value turned out to be 42%; the “decrease in noradrenaline, left ventricle” value is on record as 35%; the “decrease in noradrenaline, mesenteric artery” value came out at 47%; the “increase in dopamine, cerebral cortex” value is reported as 86%. Also, in data set [1] (setting [4]), the “increase in dopamine, left ventricle” value is reported as 800% and the “increase in dopamine, mesenteric artery” value is listed as 820%. In addition, the “norepinephrine concentration vs vehicle, mesenteric artery” value in data set [1] (10, 30 and 100 mg/kg) is reported as “not significantly less (p>0.05) than vehicle”. Also, in data set [1] (all doses (3-100 mg/kg)), the “dopamine/norepinephrine ratio vs vehicle, mesenteric artery” value is “significantly (p<0.05) greater than vehicle”. The “in vivo potency compared with the R enantiomer” value in data set [1] (all three tissues at 30 mg/kg) is given as “more potent than the R enantiomer”. Further, in data set [1] (setting [5]), the “dose inhibiting DBH in the cerebral cortex of rats” value lay in the range of 60 to 100 mg/kg/day; the “dose inhibiting DBH in the left ventricle and mesenteric artery of rats” value fell in the range of 1 to 6 mg/kg/day. Further, in data set [1] (setting [6]), the “dopamine concentration vs vehicle, left ventricle” value was “significantly (p<0.05) greater than vehicle”; the “dopamine concentration vs vehicle, mesenteric artery” value is reported as “significantly (p<0.05) greater than vehicle”; the “dopamine/norepinephrine ratio vs vehicle, left ventricle” value was “significantly (p<0.05) greater than vehicle”. For the same molecule, the “norepinephrine concentration vs vehicle, left ventricle” value in data set [1] (doses of 10, 30 and 100 mg/kg) is on record as “significantly (p<0.05) lower than vehicle”. Further, in data set [1] (doses of 30 and 100 mg/kg), the “dopamine concentration vs vehicle, cerebral cortex” value is “significantly (p<0.05) greater”; the “dopamine/norepinephrine ratio vs vehicle, cerebral cortex” value was “significantly (p<0.05) greater”; the “norepinephrine concentration vs vehicle, cerebral cortex” value was “significantly (p<0.05) lower”. In addition, the “doses at which catecholamine changes attained statistical significance (p<0.05)” value in data set [1] (mesenteric artery and left ventricle) is greater than 3 mg/kg. Also, in data set [1] (three doses at 30 mg/kg over 24 hours), the “in vivo effectiveness compared with SKF 102698” value was “more effective than SKF 102698 in the mesenteric artery and left ventricle, but less effective in the cerebral cortex”.
